Like-named read-outs stand apart in the source and are kept apart here.
How the values were obtained:
[1] = tested on: 3T3-L1 mouse pre-adipocyte; test: 3T3-L1 pre-adipocyte differentiation (adipogenesis) assay; assay type: cell-based; details: for adiponectin expression, compound added early: added Day 0 of differentiation; for adiponectin expression / adipogenesis, compound added later: added Day 2 of differentiation
Experimental: We cultured and differentiated mouse 3T3-L1 preadipocytes and primary fibroblasts isolated from 16-days old embryos using standard procedures (Green, et al., Cell 3:127-33 (1974)). After reaching confluence (DMEM, high glucose, 10% calf serum, Day 0), cells were differentiated (3-isobutyl-1-methylxanthine 0.5 mM, dexamethasone 1 μM, insulin 1.7 μM) for 48 h before media replacement every 48 h (DMEM, 10% FCS insulin, 1.7 μM) for 7 days.
Northern blotting was performed as before with HyBond (Amersham; Ziouzenkova, et al., Proc. Natl. Acad. Sci. USA 100:2730-5 (2003)).
(§1) We determined triglyceride content in lysed cells (RIPA buffer, complete protease inhibitor cocktail, Roche) using an enzymatic colorimetric assay (Wako, Japan) and adiponectin levels via ELISA (R&D, Minneapolis). For Western blotting, cell lysates, plasma, and tissue lysates underwent reducing gel separation (10% acrylamide) and hybridization with RXR (Santa Cruz, Calif.), mouse RBP4 (Alpco), or UCP1 (Chemicon) antibodies.
To test Rald effects on adipogenesis, we performed 3T3-L1 mouse pre-adipocyte differentiation assays in the presence of Rald concentrations similar to those found in fat in vivo. Rald levels as low as 100 nM suppressed mRNA expression of the adipogenic target genes CD36, adiponectin, and aP2. These repressive effects of Rald were evident in a concentration-dependent manner in either the presence or absence of the PPARγ agonist BRL49653 (BRL), a potent adipogenic stimulus.

Human full-length PPARγ2 = target: T1, Human full-length PPARγ2 (Homo sapiens, UniProt P37231); test: Scintillation proximity assay / cell-free radioligand displacement; assay type: binding
T1 sequence (P37231 1-505): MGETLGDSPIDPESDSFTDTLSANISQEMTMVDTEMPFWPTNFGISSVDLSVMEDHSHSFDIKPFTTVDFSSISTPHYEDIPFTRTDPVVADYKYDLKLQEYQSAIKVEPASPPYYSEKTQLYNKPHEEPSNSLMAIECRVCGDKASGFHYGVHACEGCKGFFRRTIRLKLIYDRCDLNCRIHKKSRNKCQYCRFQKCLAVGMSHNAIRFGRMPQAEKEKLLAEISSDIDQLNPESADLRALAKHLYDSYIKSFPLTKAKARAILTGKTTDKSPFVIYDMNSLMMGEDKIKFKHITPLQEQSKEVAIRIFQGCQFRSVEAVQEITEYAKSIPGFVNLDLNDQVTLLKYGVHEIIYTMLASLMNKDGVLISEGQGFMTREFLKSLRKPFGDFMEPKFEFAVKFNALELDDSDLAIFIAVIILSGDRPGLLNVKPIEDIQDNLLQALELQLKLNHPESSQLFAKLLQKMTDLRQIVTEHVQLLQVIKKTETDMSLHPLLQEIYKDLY
Experimental: Scintillation proximity assays were performed on our behalf.
(§2) Given these effects of Rald on RXR-LBD activation, we next tested if Rald could inhibit activation of a transfected canonical PPAR response element (PPRE) luciferase construct after RXR and/or PPARγ transfection and respective agonist stimulation (9-cis RA or BRL). […] Similar effects were evident in cell-based PPARγ-LBD assays in the presence of BRL. Thus, Rald suppresses adipogenic gene expression, adipocyte lipid accumulation, RXRα and PPARγ-LBD activation, as well as PPRE responses, all at concentrations (<1 μM) that overlap levels present in rodent fat in vivo. Importantly, these Rald effects diverge from the responses seen to RA.

[2] = tested on: RXRα/RXRβ siRNA-treated 3T3-L1 adipocytes; test: 3T3-L1 adipogenesis assay after RXRα/RXRβ siRNA; assay type: cell-based, mouse; details: RXRα/RXRβ siRNA 48 hours, differentiation 7 days
Description: (§3) Transient transfection of NIH 3T3 cells (2.3×10^4 cells, 24-well plates) with PCMX-β-galactosidase and LBD/yeast Gal 4/luciferase constructs used Fugene (Roche) as before (Ziouzenkova, et al., Proc. Natl. Acad. Sci. USA 100:2730-5 (2003)). For siRNA transfections, 3T3-L1 cells (90% confluence, antibiotic-free DMEM, 10% CS, 24-well plates) received control (sequences C, D) or specific siRXRα and siRXRβ sequences (Santa Cruz) using Lipofectamine 2000/OptiMEM medium (Invitrogen) and media supplemented with 10% FBS 5 h post-transfection. Western blotting evaluated RXR levels post-transfection (48 h). After transfection (48 h), we induced differentiation before analysis after 7 days.
as §1
To evaluate Rald effects in an RXR loss of function model, 3T3-L1 adipogenesis assays in the presence of Rald were repeated but after first decreasing RXRα and RXRβ levels using siRNA to each RXR isotype. […]

RARα-LBD = target: T2, RARα-LBD (Homo sapiens, UniProt P10276); test: LBD-GAL4 transfection assay, RARα-LBD; assay type: cell-based
T2 construct: expressed in transfected cells; host or cells: NIH 3T3 cells
T2 sequence (P10276 183-417 limits assumed): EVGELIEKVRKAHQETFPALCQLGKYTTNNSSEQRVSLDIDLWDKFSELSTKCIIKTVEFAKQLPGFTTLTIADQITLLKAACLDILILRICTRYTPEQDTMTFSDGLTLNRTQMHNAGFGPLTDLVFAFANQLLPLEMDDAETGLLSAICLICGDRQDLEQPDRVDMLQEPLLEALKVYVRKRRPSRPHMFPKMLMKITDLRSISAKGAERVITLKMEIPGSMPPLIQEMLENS
Description: as §3
(§4) Given Rald's suppression of PPARγ agonist-stimulated adipogenesis and adiponectin release, we tested if Rald altered activation of RAR and RXR, and if it did so in a way distinct from other retinoids. Ligand binding domain (LBD)-GAL4 transfection assays were performed in 3T3-NIH fibroblasts in the presence or absence of known specific nuclear receptor agonists and/or Rald. […] Rald alone had no effect on RXRα-LBD activation. […] Thus, Rald plays a distinct, independent role from RA in RXRα-LBD regulation, suppressing ligand-mediated activation.

[3] = tested on: preadipocytes isolated from human visceral fat depots; test: Adipogenesis in preadipocytes from human visceral fat; assay type: cell-based
[4] = tested on: PPAR response element (PPRE); test: PPRE luciferase construct after RXR and/or PPARγ transfection; assay type: cell-based
Description: as §3, §2

ob/ob mice = test: ob/ob mice, intraperitoneal administration, 3 weeks; assay type: in vivo, mouse; details: for percentage of subcutaneous fat relative to total body fat / RBP4 plasma levels as compared to vehicle: retinoids 500 nM
Description: The Standing Committee On Animals at Harvard Medical School approved all protocols.
MRI data (1 mm slices) obtained on a Bruker Avance 500 wide bore spectrometer (11.7 T; 500 MHz for proton) fitted with a gradient amplifier and a 30 mm “birdcage” transmitter/receiver coil was processed with Paravision™ software. Spin Echo parameters included TI weighted images: TE=15 ms and TR=300 ms, matrix=256, FOV=30 mm; RARE images: TE=51 ms, TR=2500 ms, matrix=256, FOV=30 mm. Abdominal fat measurements used axial slices (n=8) at the level of the left renal pelvis.
After acclimation to powdered high fat diet (4 d), food/water intake, oxygen consumption, and carbon dioxide production were measured in metabolic cages (Ancare, Charles River Laboratories). Calculated metabolic rate (Weir equation) was expressed per g body weight. We performed insulin (ITT) and glucose tolerance tests (GTT) after food deprivation (16 h) using intraperitoneal insulin injection (ITT, 0.1 U/ml 0.005 ml/g body weight) or single 25% dextrose (GTT, 0.004 mL/g body weight) administration and glucometer measurements (Accu-Chek Advantage, Roche).
After 3 weeks, subcutaneous fat mass was quantified by magnetic resonance imaging (MRI).

PPARγ-LBD = target: T3, PPARγ-LBD (Homo sapiens, UniProt P37231); test: Cell-based PPARγ-LBD assay; details: presence of BRL; concentrations <1 μM
T3 construct: expressed in transfected cells; host or cells: NIH 3T3 cells
T3 sequence (P37231 238-503 limits assumed): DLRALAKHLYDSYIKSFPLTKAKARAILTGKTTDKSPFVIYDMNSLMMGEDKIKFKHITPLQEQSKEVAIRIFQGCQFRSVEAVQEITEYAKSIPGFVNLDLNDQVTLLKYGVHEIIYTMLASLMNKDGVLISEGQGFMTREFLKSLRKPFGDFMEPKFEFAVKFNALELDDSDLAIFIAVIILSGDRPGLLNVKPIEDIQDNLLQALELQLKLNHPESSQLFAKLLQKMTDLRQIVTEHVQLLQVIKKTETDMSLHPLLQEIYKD
Description: as §3, §2

RXRα-LBD = target: T4, RXRα-LBD (Homo sapiens, UniProt P19793); test: LBD-GAL4 transfection assay, RXRα-LBD; assay type: cell-based
T4 construct: expressed in transfected cells; host or cells: NIH 3T3 cells
T4 sequence (P19793 227-458 limits assumed): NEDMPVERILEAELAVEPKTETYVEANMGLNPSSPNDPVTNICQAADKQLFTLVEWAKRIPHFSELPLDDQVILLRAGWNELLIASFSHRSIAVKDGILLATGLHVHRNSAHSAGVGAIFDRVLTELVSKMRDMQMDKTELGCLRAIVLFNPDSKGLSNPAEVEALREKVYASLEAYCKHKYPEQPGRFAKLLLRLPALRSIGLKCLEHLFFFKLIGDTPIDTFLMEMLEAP
Description: as §3, §4

rats = details: cited from earlier work
[5] = cell-free radioligand displacement, read-out: Kd, displacement of high affinity PPARγ agonists
[6] = summary statement, unit inferred, read-out: Kd, receptor binding
[7] = MRI after 3 weeks, i.p., citral 10 μM

CC1=C(/C=C/C(C)=C\C=C\C(C)=C\C(=O)O)C(C)(C)CCC1 [9-cis RA, reference compound]
adiponectin expression, compound added early [1]: inhibited | adiponectin expression / adipogenesis, compound added later [1]: no effect

CC1=C(/C=C/C(C)=C\C=C\C(C)=C\C=O)C(C)(C)CCC1 [9-cis Rald]
Kd (Human full-length PPARγ2; [5]): 5.9 ± 0.7 µM | Kd (Human full-length PPARγ2; [6]): 5.9 ± 0.7 µM

CC1=C(/C=C/C(C)=C/C=C/C(C)=C/C=O)C(C)(C)CCC1 [13-cis Rald]
Kd (Human full-length PPARγ2; [5]): 9.7 ± 1.2 µM | Kd (Human full-length PPARγ2; [6]): 9.7 ± 1.2 µM

CN(CCOc1ccc(CC2SC(=O)NC2=O)cc1)c1ccccn1 (stereo not drawn) [BRL, rosiglitazone, reference compound]
adiponectin levels induced by BRL stimulation [1]: six-fold increase

CC1=C(/C=C/C(C)=C/C=C/C(C)=C/C=O)C(C)(C)CCC1 [Rald, retinaldehyde]
adiponectin secretion after siRNA exposure [2]: no additional effects | triglyceride accumulation after siRNA exposure [2]: further decreased | RARα-LBD activation (RARα-LBD; compound alone, 3T3-NIH fibroblasts): weakly activated | RARα-LBD activation by 9-cis RA (RARα-LBD; in presence of 9-cis RA): did not alter | adiponectin levels induced by BRL stimulation [1]: mitigated | mRNA expression of adipogenic target genes CD36, adiponectin, aP2 ([1]; Rald levels as low as 100 nM, presence or absence of BRL): suppressed | lipid accumulation ([1]; absence and presence of BRL): decreased | adiponectin expression, compound added early [1]: inhibited | adiponectin expression / adipogenesis, compound added later [1]: also inhibited adipogenesis | adiponectin secretion ([1]; stimulation early or late, concentration-dependent): decreased | Kd (Human full-length PPARγ2; [6]): 11.9 ± 1.9 µM | adipogenesis [3]: repressed | inhibition of PPRE activation ([4]; PPARγ and RXR co-transfection and PPARγ agonist stimulation): 60% | PPRE activation by both agonists (9-cis RA or BRL) ([4]; RXR and/or PPARγ transfection): significantly inhibited | subcutaneous fat (ob/ob mice; MRI after 3 weeks, i.p. 500 nM): significantly less subcutaneous fat | percentage of subcutaneous fat relative to total body fat (ob/ob mice; [7]): 15.5±0.6% | glucose tolerance (ob/ob mice; i.p., Rald 500 nM, citral 10 μM): improved | RBP4 plasma levels as compared to vehicle (ob/ob mice; i.p., citral 10 μM): significantly suppressed | PPARγ-LBD activation (PPARγ-LBD): suppresses | RXRα-LBD activation (RXRα-LBD; compound alone): no effect | RXRα-LBD activation by 9-cis RA (RXRα-LBD; in presence of 9-cis RA): significantly inhibited

CC1=C(/C=C/C(C)=C/C=C/C(C)=C/C(=O)O)C(C)(C)CCC1 [all-trans RA, Retinoic acid, reference compound]
adiponectin expression / adipogenesis, compound added later [1]: no effect | percentage of subcutaneous fat relative to total body fat (ob/ob mice; [7]): 19.1±1.6% | RBP4 plasma levels as compared to vehicle (ob/ob mice; i.p., citral 10 μM): no effect

CC(C)=CCCC(C)=CC=O [citral, 3,7-dimethyl-2,6-octadienal]
tolerability (rats; high doses, rats): well tolerated | body weight versus citral free diet (rats; rats fed a diet with citral): weighed less | RBP4 plasma levels as compared to vehicle (ob/ob mice; i.p., citral 10 μM): significantly suppressed

CC1=C(/C=C/C(C)=C/C=C/C(C)=C/CO)C(C)(C)CCC1 [vitamin A, retinol, reference compound]
percentage of subcutaneous fat relative to total body fat (ob/ob mice; [7]): 17.3±1.3% | RBP4 plasma levels as compared to vehicle (ob/ob mice; i.p., citral 10 μM): increased RBP4 plasma levels two-fold

Reference: US9078852B2, “Retinaldehyde in the treatment of obesity, diabetes and other conditions” (The Brigham and Women's Hospital, Inc., priority 2008, dated 2015)
